The values that follow come from article PMC9679992, “Fusicoccin-A Targets Cancerous Inhibitor of Protein Phosphatase 2A by Stabilizing a C-Terminal Interaction with 14-3-3” (ACS Chemical Biology, 2022).

Read-outs that look alike come from different tables or passages of the source. Peptide text beside a SMILES is read from it. * marks the point of attachment. Cbz = O=C(OCc1ccccc1)*

In one experiment the test system is GST-14-3-3η / CIP2A. In words: GST-14-3-3η pulldown of CIP2A, MDA-MB-468 cell lysates. It counts as binding. The conditions noted are these: lysate preincubated with 200 μM ATP, 10 mM MgCl2, 1 hour 37 °C. On the procedure: (§1) (A) Cartoon showing FC-A coupled to magnetic hydrazide beads. (B) Western blot showing the results of an FC-beads pulldown experiment in MDA-MB-468 cell lysates. (C) Western blot of the GST14-3-3η pulldown of CIP2A in MDA-MB-468 cell lysates. […] (D) Western blot of MDA-MB-468 cell lysates after treatment of cells with 30 μM FC-A or a vehicle control for 24 h before harvest. Quantification was performed after normalization to an actin loading control. […] Membrane was probed with our custom CIP2A pS904, C-terminal CIP2A, and actin antibodies. (E) Western blot of GST14-3-3η pulldown of CIP2A in MDA-MB-468 cell lysates from cells either treated with 30 μM FC-A or a vehicle control for 24 h before harvest. Representative Western blots are shown of three (B–D) or two (E) independent experiments.

The next experiment deals with T1, GST-14-3-3η (Homo sapiens, UniProt Q04917).
T1 construct: made in house; host or cells: Rosetta 2 (DE3)pLysS E. coli
T1 sequence (Q04917 1-246): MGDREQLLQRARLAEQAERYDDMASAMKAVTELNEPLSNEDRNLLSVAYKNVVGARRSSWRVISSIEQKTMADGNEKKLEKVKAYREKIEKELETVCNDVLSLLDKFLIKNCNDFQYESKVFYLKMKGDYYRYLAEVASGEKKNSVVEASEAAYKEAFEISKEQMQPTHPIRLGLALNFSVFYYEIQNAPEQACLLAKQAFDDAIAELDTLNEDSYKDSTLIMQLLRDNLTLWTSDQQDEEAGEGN
In words: Fluorescent polarization, GST14-3-3η titrated to FAM-pCIP2A peptide. It counts as binding, Hs. The following applies: FP, GST14-3-3η titrated to 100 nM FAM peptide, PBS pH 7.5, RT, 30 min.

The subject of experiment [1] is cancer cells, including breast cancer. The following applies: FC-A and its derivatives; cited from earlier work. An excerpt: It has been shown that polo-like kinase 1 (PLK1) can bind to the C-terminal tip of CIP2A and phosphorylate its penultimate residue Ser904.[11] We hypothesized that phosphorylation of Ser904 could create a C-terminal binding site for the regulatory proteins 14-3-3, which act as molecular scaffolds in the cell through regulation of protein–protein interactions (PPIs) in key cellular processes. A unique feature of a subset of C-terminal 14-3-3 interactions is that they can be targeted by the diterpene glucoside Fusicoccin-A (FC-A) for PPI stabilization.[12],[13] In several studies, FC-A and its d ...

Another experiment deals with CIP2A / 14-3-3. In words: GST14-3-3η pulldown of CIP2A from FC-A treated MDA-MB-468 cells. The following applies: cells treated with 30 μM FC-A 24 h vs control; two independent experiments. Type of experiment: cell-based. As for the experimental part:
as §1, with “experiments. […]” for “experiments.”

Another experiment has as its system CIP2A. Type of experiment: cell-based. On the procedure: as §1, with “experiments. […]” for “experiments.”
The subject of another experiment is CIP2A Ser904. It counts as cell-based. As for the experimental part:
as §1, with “experiments. […]” for “experiments.”

The subject of a further experiment is 14-3-3η/pCIP2A complex. Nature of the experiment: Fluorescent polarization, FC-A stabilization of 14-3-3η/pCIP2A. Details: species or system Hs. The conditions noted are these: FP, FC-A titrated to 100 nM peptide 3 and 1.5 μM GST14-3-3η (legend; SI: 4.7 μM); PBS, RT, 30 min; mean of three independent experiments; read-out: EC50 (FC-A enhancing binding of 14-3-3η to pCIP2A). An excerpt:
Figure 1 The C-terminus of CIP2A contains a mode-III 14-3-3 binding motif. (A) CIP2A’s C-terminus overlaid with 14-3-3 mode-III binding motif. The putative phosphosite is highlighted red with an alignment of the C-terminal amino acid sequence of CIP2A from different species shown below. (B) Chemical structure of Fusicoccin-A. (C) Overview of N-terminally biotinylated or fluorescein labeled CIP2A peptides either non- or phosphorylated on Ser904. (D) Homogeneous time-resolved FRET (HTRF) assay in which an N-terminally GST tagged 14-3-3η is targeted with an anti-GST europium (Eu) cryptate labeled monoclonal antibody and CIP2A peptides 1 and 2 used are N-terminally biotinylated and labeled with streptavidin conjugated to XL665. Concentration–response curves are shown for peptide 1 (Ser904) and peptide 2 (pSer904) in the presence or absence of a fixed 10 μM FC-A and 10 nM GST14-3-3η. Data is shown as mean ± SEM of three independent experiments. […]
FC-A beads were produced in a two-step reaction as previously described by Feyerabend and Weiler, 1987 by first generating FC-aldehyde (FC-Ald) which, was subsequently coupled to magnetic hydrazide beads (Chemicell, Cat#1404). […] Before coupling to magnetic hydrazide beads reaction efficiency was determined by HPLC analysis. […]

The subject of another experiment is ERα. The following applies: cited from earlier work.
A further experiment deals with H^+-ATPase. The conditions noted are these: 14-3-3/FC-A; cited from earlier work.
Experiment [2] has as its target T2, 14-3-3η (N-terminally GST tagged) (Homo sapiens, UniProt Q04917).
T2 construct: made in house; host or cells: Rosetta 2 (DE3)pLysS E. coli
T2 sequence (Q04917 1-246): T1 sequence (Q04917 1-246)
Nature of the experiment: HTRF assay of CIP2A C-terminal peptides with GST14-3-3η. Type of experiment: binding, Hs. The conditions noted are these: HTRF concentration–response, nonphosphorylated peptide; 10 nM GST14-3-3η; presence or absence of 10 μM FC-A.
Source text: Therefore, using (non)phosphorylated C-terminal CIP2A peptides, we investigated whether 14-3-3 could directly interact with CIP2A (Figure 1C). First, we developed a homogeneous time-resolved FRET (HTRF) assay for this putative interaction and its phosphorylation dependence (Figure 1D). […] Europium is excited at a wavelength of 337 nm resulting in emission at a wavelength of 620 nm. If 14-3-3 interacts with the CIP2A peptide, resonance energy transfer can occur resulting in excitation and emission of XL665 at a wavelength of 665 nm.
Data is shown as mean ± SEM of three independent experiments. […] Data is presented as the mean ± SEM of three independent experiments.

For `Nc1ncnc2c1ncn2[C@@H]1O[C@H](COP(=O)(O)OP(=O)(O)OP(=O)(O)O)[C@@H](O)[C@H]1O` [ATP], the “effect on CIP2A pulldown by GST-14-3-3η” value in the experiment on GST-14-3-3η / CIP2A is given as “more CIP2A was identified in pulldown samples”.

For `CC[C@H](C)[C@H](NC(=O)[C@H](COP(=O)(O)O)NC(=O)[C@H](CC(C)C)NC(=O)[C@H](CC(N)=O)NC(=O)[C@@H](NC(=O)[C@@H](NC(=O)[C@H](CCC(=O)O)NC(=O)[C@@H]1CCCN1C(=O)[C@H](CC(N)=O)NC(=O)[C@@H](NC(=O)c1ccc2c(c1)C(=O)OC21c2ccc(O)cc2Oc2cc(O)ccc21)[C@@H](C)CC)[C@@H](C)O)C(C)C)C(=O)O` [FAM-pCIP2A peptide], the EC50 came out at 118 µM on GST-14-3-3η (buffer / DMSO control, read-out: EC50) and 2.76 µM at GST-14-3-3η (fixed 10 μM FC-A, read-out: EC50 (shift in presence of FC-A)).

As for `C=CC(C)(C)OC[C@H]1O[C@H](O[C@@H]2C3=C([C@H](C)COC(C)=O)C[C@H](O)[C@]3(C)/C=C3/[C@@H](COC)CC[C@H]3[C@@H](C)[C@H]2O)[C@H](O)[C@@H](OC(C)=O)[C@@H]1O` [FC-A, Fusicoccin-A], the antiproliferative effects result in [1] is listed as “antiproliferative effects in cancer cells, including breast cancer”. Further, the “CIP2A in GST-14-3-3η pulldown” value with CIP2A / 14-3-3 is listed as “more CIP2A could be detected in these samples compared to control cell lysates”. Besides, in the experiment with CIP2A, the “Fold Change (Norm. to CTL): CIP2A Tot.” value is 0.79. Also, the “effect on total CIP2A in presence of cycloheximide” value in the experiment with CIP2A (30 μM FC-A with 100 µg/mL cycloheximide, 24 h, MDA-MB-468, three independent experiments) is recorded as “no changes in total CIP2A over a 24 h period”. Also, the “effect on total CIP2A” value in the experiment on CIP2A (FC-A 24 h, MDA-MB-468) is given as “did not affect total CIP2A”. Besides, the “Fold Change (Norm. to CTL): CIP2A pS904” value in the experiment on CIP2A Ser904 is recorded as 2.55. Besides, the “effect on Ser904 phosphorylation levels” value in the experiment with CIP2A Ser904 (FC-A 24 h, MDA-MB-468) was “Ser904 phosphorylation levels were enhanced”. The EC50 with 14-3-3η/pCIP2A complex was 11.8 µM. In the experiment with ERα (MCF-7 cells treated with FC-A), the “effect on detection of C-terminal phosphorylation of ERα” value is given as “necessary to detect C-terminal phosphorylation of the ERα”. For the same molecule, in the experiment on H^+-ATPase, the “protection of penultimate C-terminal phosphorylation site” value was “shields the penultimate C-terminal phosphorylation site from phosphatases”.

For the molecule `CC(C)C[C@@H](C=O)NC(=O)[C@H](CC(C)C)NC(=O)[C@H](CC(C)C)NC(=O)OCc1ccccc1` [MG132] (Cbz-Leu-Leu-Leu-aldehyde), the “effect on phosphorylation of ERα C-terminal tip” value in the experiment with ERα (proteasome inhibitor MG132, in addition to FC-A) is on record as “additional requirement for phosphorylation of the C-terminal tip”.

With “Bio-LSSGGKINPETVNL-S^904-I-COOH [peptide 1, N-terminally biotinylated nonphosphorylated C-terminal CIP2A peptide]”, in experiment [2], the “interaction with 14-3-3” value is listed as “does not interact with 14-3-3”.
